{"source": "patent US20060083711A1", "about": "“Methods and products related to the intracellular delivery of polysaccharides” (Massachusetts Institute of Technology, priority 2004, published 2006)", "key": {"[1]": {"system": "Daudi cells", "test": "Whole cell proliferation assay", "assay_type": "cell-based, human", "details": "for direct effect of kinase inhibitor on Daudi whole cell number: FBS-deficient media, 50 μM LY294002, 20 μM PD98059, or 1 μM SB203580", "protocol": "For proliferation assays using Daudi cells, cells were collected from 75 cm^2 flasks, washed three times with FBS-deficient media or proliferation media, and resuspended into 10 ml of the same media. Cells were diluted to 1×10^5 cells/ml based on the reading of an electronic cell counter, and plated 1 ml/well in 24-well plates. Wells were treated with PBS, heparin, A5, or A5-heparin conjugate in 10 μl volumes, and incubated for 72 hours at 37° C., 5% CO2. A5-heparin conjugates were additionally supplemented with 50 μM LY294002, 20 μM PD98059, or 1 μM SB203580, 50 mM sodium chlorate, or 10 ng/ml FGF2, as appropriate. Whole cell number was converted to a percent growth relative to PBS treatment. Proliferation assays on NFS-1.0 C-1 and J.CaM1.6 cells were performed as described for Daudi cells.\nTo probe the role of sulfation patterns and fine structure in inducing the effects of A5-heparin conjugates, heparin was partially digested with heparinases prior to conjugation. Heparin was diluted to 20 μg/ml in PBS and incubated with 5 mU/ml hepI or hepIII or an equivalent volume of PBS for 30 minutes. Digestion was confirmed by UV spectroscopy at 232 nm. Digested heparin was subsequently conjugated with A5 as described. A5 binding to the heparin fragments was confirmed using an Azure A competition assay as previously described. Daudi cells, plated as described at 1×10^5 cells/ml in 24-well plates, 1 ml/well, were treated with conjugates at a heparin concentration of 1 μg/ml or an equivalent volume of PBS. After incubating for 72 hours at 37° C., 5% CO2, the resultant whole cell count was determined by electronic cell counter, and data were converted to a percent growth relative to Daudi treated with PBS alone.\nTo examine the effects of protamine sulfate and heparinases on Daudi growth, cells were collected from 75 cm^2 flasks, pelletted, and resuspended into 10 ml of propagation media. Cells were diluted to 1×10^5 cells/ml based on the reading of an electronic cell counter, and plated 1 ml/well in 24-well plates. Protamine sulfate was added between 1 and 100,000 ng/ml. HepI and hepIII were added between 0.5 and 500 μU/ml for 24, 48, or 72 hours. Whole cell counts from heparinase assays were converted to percent reduction in whole cell number relative to untreated."}, "[2]": {"system": "PC-3 cells", "test": "PC-3 proliferation assay (whole cell number)", "assay_type": "cell-based, human", "details": "for effect of kinase inhibitor on heparin-mediated growth inhibition: 50 μM LY294002, 20 μM PD98059, 20 μM U0126, 1 μM SB203580, heparin 500 ng/ml", "protocol": "PC-3 cells were grown until confluence in 75 cm^2 flasks. Each flask was washed with 20 ml PBS, and treated with 3 ml trypsin-EDTA at 37° C. for 3-5 minutes, until cells detached. Cells were centrifuged for 3 min at 195×g. The supernatant was aspirated, and the cells were resuspended in 10 ml media. The cell density was measured using an electronic cell counter, and the suspension was diluted to 50,000 cells/ml. The suspension was plated 1 ml/well into 24-well tissue culture plates. After a 24 hour incubation in a 5% CO2, 37° C. humidified incubator, the media was aspirated, the wells were washed with serum free media, and the cells were supplemented with media containing 0.1% FBS and incubated for 24 hours. Cells were sequentially treated with antibodies, kinase inhibitors, heparin, and FGF2. Antibodies to FGF2, FGFR1, or FGFR3 were added to yield a final dilution of 1:100. Kinase inhibitors were added sufficient to yield final concentrations of 50 μM LY294002, 20 μM PD98059, 1 μM SB203580, and 20 μM U0126. Heparin was added at 500 ng/ml unless otherwise noted. To produce heparin digests, heparin was treated with PBS, hepI, or hepIII for 30 minutes, and boiled for 30 minutes. prior to addition to cells. Digestion was verified by UV spectroscopy at 232 nm. FGF2 was added at 100 ng/ml unless otherwise specified. Cells were then incubated for 72 hours. Wells were then washed twice with PBS and treated with 0.5 ml trypsin-EDTA/well and incubated for 10 minutes at 37° C. Whole cell number was determined using an electronic cell counter. Data were averaged over three experiments, each consisting of four wells per condition.\nPC-3 cells were grown until confluence in 75 cm^2 flasks. Each flask was washed with 20 ml PBS, and treated with 3 ml trypsin-EDTA at 37° C. for 3-5 minutes, until cells detached. Cells were centrifuged for 3 minutes at 195×g, the supernatant was aspirated, and the cells were resuspended in 10 ml media. The cell suspension was diluted to 50,000 cells/ml based on the readings of an electronic cell counter. The suspension was plated 1 ml/well into 24-well tissue culture plates. After a 24 hour incubation in a 5% CO2, 37° C. humidified incubator, the cells were washed with serum free media, supplemented with media containing 0.1% FBS, and incubated for 24 hours. Cells were treated with heparin, HS or FGF2 as appropriate. Heparin was added at 500 ng/ml unless otherwise noted. FGF2 was added at 100 ng/ml unless otherwise specified. Cells were then incubated for 72 hours. Wells were then washed twice with PBS and treated with 0.5 ml trypsin-EDTA/well and incubated for 10 minutes at 37° C. Whole cell number was determined using an electronic cell counter. Data were averaged over three experiments, each consisting of four wells per condition.\nFor antibody and kinase inhibitor experiments, antibodies and kinase inhibitors were added prior to HSGAGs or FGF2. […]\nTo produce heparin digests, heparin was treated with PBS, heparinase I (hepI), or hepIII for 30 minutes, and boiled for 30 prior to addition to cells. Digestion was verified and quantified by UV spectroscopy at 232 nm (27). […]\nA preliminary screen was performed on PC-3 cells by proliferation assay using the nine polymers described at polymer:heparin (w/w) ratios of 10:1, 20:1, 30:1, 40:1, and 60:1. The three best formulations (polymer and ratio) were selected and analyzed further. […] In vitro assessment of polymer activity was measured by proliferation assay with a heparin concentration of 1 μg/ml. […]"}, "[3]": {"system": "B16-F10 cells", "test": "Whole cell proliferation assay", "assay_type": "cell-based, mouse", "details": "10 ng/ml FGF2", "protocol": "Adhesion cells (B16-F10, B16-BL6, SMCs, BAECs, NIH 3T3, SK-ES-1, Panc-1, and SW-1088) were seeded in 24-well plates at 1 ml/well as well as in 6-well plates at 3 ml/well, both at a density of 5×10^4 cells/ml. The plates were incubated for 24 hours at 37° C., 5% CO2. The cells were then washed with PBS and supplemented with media as appropriate. Cells were treated with PBS, heparin, polymer, or polymer-heparin conjugate, in 10 μl quantities at appropriate concentrations. Cells were incubated at 37° C., 5% CO2 for 72 hours, after which, each well was treated with 500 μl (24 well plates) or 1 ml (6 well plates) trypsin-EDTA for 5-15 minutes at room temperature, after which 400 μl was used to count the cell number with an electronic cell counter. […] Panc-1 cells were only tested in 10% FBS. Effects of conjugate were normalized to co-treatment without conjugate.\nB16-F10 cells were grown until confluent, washed with PBS, treated with 3 ml trypsin-EDTA per 75 cm^2 tissue culture flask at 37° C. for 3-5 min, pelleted, and resuspended in FBS-deficient media. Cell concentration was determined with an electronic cell counter. […] Cells were treated with PBS, heparin, A5, or A5-heparin conjugate, added in 10 μl quantities, to yield a polymer concentration of 20 μg/ml and a heparin concentration of 1 μg/ml. […]"}, "[4]": {"system": "Erk1, Erk2 in PC-3 cells", "test": "Whole cell ELISA", "assay_type": "cell-based, human", "details": "10 ng/ml FGF2 or 500 ng/ml heparin; 5, 15, or 60 minutes", "protocol": "(§1) ELISA was performed on whole cells to determine a quantifiable relative level of kinase activity. PC-3 cells were grown until confluence in 75 cm^2 flasks. Each flask was washed with 20 ml PBS, and treated with 3 ml trypsin-EDTA at 37° C. for 3-5 minutes, until cells detached. Cells were centrifuged for 3 min at 195×g. The supernatant was aspirated, and the cells were resuspended in 10 ml media. The cell density was measured using an electronic cell counter, and the suspension was diluted to 50,000 cells/ml. 100 mm dishes were supplemented with 10 ml cell suspension per dish. After a 24 hour incubation the media was aspirated, the dishes washed with serum free media, and the cells supplemented with media containing 0.1% FBS and incubated for 24 hours. Dishes were treated with PBS, 10 ng/ml FGF2, or 500 ng/ml heparin for 5, 15, or 60 minutes. Media was then aspirated, the cells were washed with 10 ml PBS, and each dish was treated with 5 ml Trizol reagent. Cell extract was added to 96-well plates previously incubated for 1 hour with primary antibodies to Erk1, Erk2 or phospho-Erk1/2. […] The reaction was quenched with 1 M HCl, and the plates were analyzed using a UV plate reader at 450 nm. Data were quantified by comparing to a standardized curve with varying concentrations of untreated cells."}, "[5]": {"system": "phospho-Erk1/2 in PC-3 cells", "test": "Whole cell ELISA", "assay_type": "cell-based, human", "details": "10 ng/ml FGF2; 5, 15, or 60 minutes", "protocol": "as §1"}, "[6]": {"biological_target": "FGFR1c on PC-3 cells (human) (UniProt P11362)", "sequence (P11362 22-822)": "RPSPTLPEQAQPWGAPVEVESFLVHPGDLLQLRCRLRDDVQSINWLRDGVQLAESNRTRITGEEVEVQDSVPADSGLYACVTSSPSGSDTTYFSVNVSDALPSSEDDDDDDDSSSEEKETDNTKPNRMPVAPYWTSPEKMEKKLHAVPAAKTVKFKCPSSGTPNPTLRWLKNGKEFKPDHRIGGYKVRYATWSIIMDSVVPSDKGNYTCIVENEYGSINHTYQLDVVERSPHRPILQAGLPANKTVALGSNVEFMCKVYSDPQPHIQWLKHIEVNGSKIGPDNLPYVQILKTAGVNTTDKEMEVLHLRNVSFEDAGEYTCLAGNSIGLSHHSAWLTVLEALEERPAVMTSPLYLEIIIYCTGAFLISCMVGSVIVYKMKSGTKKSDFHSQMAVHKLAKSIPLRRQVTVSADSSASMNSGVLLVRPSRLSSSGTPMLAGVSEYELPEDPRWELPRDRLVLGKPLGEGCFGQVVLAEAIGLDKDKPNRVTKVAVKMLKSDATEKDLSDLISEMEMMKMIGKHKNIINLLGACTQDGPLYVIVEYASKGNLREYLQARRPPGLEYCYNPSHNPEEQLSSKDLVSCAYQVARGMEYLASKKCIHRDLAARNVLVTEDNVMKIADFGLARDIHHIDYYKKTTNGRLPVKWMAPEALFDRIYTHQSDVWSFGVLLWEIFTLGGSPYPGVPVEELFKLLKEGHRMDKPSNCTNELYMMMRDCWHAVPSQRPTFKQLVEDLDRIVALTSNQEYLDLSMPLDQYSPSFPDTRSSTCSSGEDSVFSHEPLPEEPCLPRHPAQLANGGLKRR", "test": "cell-based or functional assay"}}, "note": "“And” between values parts separate entries of the source, which are not always exact repeats. Equal values may be shown once. “Also recorded” adds a separate entry of the source."}
{"compound": "COc1cccc(-c2cc(=O)c3ccccc3o2)c1N", "note": "[PD98059]", "values": [{"measurement": "direct effect of kinase inhibitor on Daudi whole cell number", "setting": "[1]", "result": "neither inhibition of PI3K with LY294002 (p>0.39) nor inhibition of Erk and Mek with PD98059 (p>0.64) had a direct effect"}, {"measurement": "effect of kinase inhibitor on heparin-mediated growth inhibition", "setting": "[2]", "result": "eliminate the ability of heparin to inhibit PC-3 growth; also recorded: prevented heparin-mediated growth inhibition"}]}
{"compound": "C[S+]([O-])c1ccc(-c2nc(-c3ccncc3)c(-c3ccc(F)cc3)[nH]2)cc1", "note": "(stereo not drawn) [SB203580]", "values": [{"measurement": "direct effect of kinase inhibitor on Daudi whole cell number", "setting": "[1]", "result": "caused a significant reduction"}, {"measurement": "effect of kinase inhibitor on heparin-mediated growth inhibition", "setting": "[2]", "result": "did not eliminate the effect of heparin; also recorded: had no effect"}]}
{"compound": "N#CC(=C(/N)Sc1ccccc1N)/C(C#N)=C(/N)Sc1ccccc1N", "note": "[U0126]", "values": [{"measurement": "effect of kinase inhibitor on heparin-mediated growth inhibition", "setting": "[2]", "result": "eliminate the ability of heparin to inhibit PC-3 growth; also recorded: prevented heparin-mediated growth inhibition"}]}
{"compound": "FGF2: Recombinant human FGF2", "values": [{"measurement": "inhibition of cell number by FGF2 alone", "setting": "[3]", "result": "26.28±7.23", "unit": "%"}, {"measurement": "effect on Daudi proliferation", "setting": "[1]; 10 ng/ml FGF2", "result": "did not affect Daudi proliferation"}, {"measurement": "Erk1 or Erk2 levels", "setting": "[4]", "result": "no significant effect"}, {"measurement": "upregulation of phospho-Erk1/2", "setting": "[5]", "result": "2-3 fold"}, {"measurement": "increase in proliferation (whole cell number)", "setting": "[2]; 100 ng/ml FGF2", "result": "~15% and 15.6±3.1%"}, {"measurement": "proliferation", "setting": "[2]; FGF2 doses of 50 ng/ml and lower", "result": "did not promote significant proliferation"}]}
{"compound": "Recombinant human FGF2 (from UniProt P09038 135-288) (ligand)", "values": [{"measurement": "increase in proliferation of PC-3 cells at 100 ng/ml FGF2", "setting": "[6]", "result": 15, "unit": "%"}, {"measurement": "upregulation of phospho-Erk1/2 in PC-3 cells (whole cell ELISA)", "setting": "[6]", "result": "2 to 3", "unit": "fold"}]}
{"compound": "protamine sulfate", "values": [{"measurement": "reduction in whole cell number", "setting": "[1]; protamine sulfate 1×10^5 ng/ml, media with 10% FBS, three days", "result": "12.9±2.8", "unit": "%"}, {"measurement": "effect on whole cell number", "setting": "[1]; protamine sulfate concentrations less than 1×10^5 ng/ml, 10% FBS", "result": "no effect"}]}
